ChEMBL document CHEMBL5325418, “Studies on diketopiperazine and dipeptide analogs as opioid receptor ligands” (Eur J Med Chem, 2023)
Square brackets hold non-standard residues; d marks the D form. Peptide text beside a SMILES is read from it. ξ: configuration not given here. ξPhe(3-OMe) = COc1cccc(CC(N)C(=O)O)c1; ξPhe(2-I) = NC(Cc1ccccc1I)C(=O)O; Nphe = O=C(O)CNCc1ccccc1

Each compound was assayed against Kappa-type opioid receptor (Homo sapiens, UniProt P41145) (assay: Displacement of [3H]U69593 from human KOR expressed in HEK cell membranes assessed as inhibition constant incubated for 60 mins by microbeta 2 scintillation counting method).
Sequence of Kappa-type opioid receptor (P41145 whole entry): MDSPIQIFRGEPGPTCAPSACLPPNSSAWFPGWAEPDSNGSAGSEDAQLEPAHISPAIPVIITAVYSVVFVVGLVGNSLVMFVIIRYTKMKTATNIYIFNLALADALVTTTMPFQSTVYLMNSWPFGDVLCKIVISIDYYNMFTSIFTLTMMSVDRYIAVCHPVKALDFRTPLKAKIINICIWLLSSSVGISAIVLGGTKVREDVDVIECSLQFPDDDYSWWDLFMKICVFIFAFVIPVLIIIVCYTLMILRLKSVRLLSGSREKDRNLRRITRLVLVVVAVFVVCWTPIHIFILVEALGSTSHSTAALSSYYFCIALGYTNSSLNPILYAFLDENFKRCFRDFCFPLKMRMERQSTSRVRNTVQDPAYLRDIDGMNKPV
Set-up: species or system Cell membrane

Row | Compound | Ki [µM]
1 | COC(=O)C(Cc1ccccc1I)NC(=O)CNCc1ccccc1 (stereo not drawn) (H-[Nphe]-[ξPhe(2-I)]-OMe) | > 10
2 | COc1cccc(CC2NC(=O)CNC2=O)c1I (stereo not drawn) | > 10
3 | COC(=O)C(Cc1cccc(OC)c1I)NC(=O)CNC(C)c1ccccc1 (stereo not drawn) | 0.765
4 | COC(=O)C(Cc1cc(OC)cc(OC)c1I)NC(=O)CNCc1ccccc1 (stereo not drawn) | > 10
5 | COc1cccc(CC2NC(=O)CN(CCCc3ccccc3)C2=O)c1I (stereo not drawn) | 7
6 | COC(=O)C(Cc1cccc(OC)c1I)NC(=O)CN (stereo not drawn) | > 10
7 | COC(=O)C(Cc1cccc(OC)c1I)NC(=O)CNCCc1ccccc1 (stereo not drawn) | 0.802
8 | COC(=O)C(Cc1cccc(OC)c1)NC(=O)CNCc1ccccc1 (stereo not drawn) (H-[Nphe]-[ξPhe(3-OMe)]-OMe) | > 10
9 | COc1cccc(CC2NC(=O)[C@@H]3CCCN3C2=O)c1I (stereo partly drawn) | > 10
10 | COC(=O)C(Cc1cccc(OC)c1I)NC(=O)[C@@H](N)Cc1ccccc1 (mixture of isomers) | 2.17

What follows are compounds tested against Mu-type opioid receptor (Homo sapiens, UniProt P35372) (assay: Displacement of [3H]DAMGO from human MOR expressed in CHO cell membranes assessed as inhibition constant incubated for 60 mins by microbeta 2 scintillation counting method).
Sequence of Mu-type opioid receptor (P35372 whole entry): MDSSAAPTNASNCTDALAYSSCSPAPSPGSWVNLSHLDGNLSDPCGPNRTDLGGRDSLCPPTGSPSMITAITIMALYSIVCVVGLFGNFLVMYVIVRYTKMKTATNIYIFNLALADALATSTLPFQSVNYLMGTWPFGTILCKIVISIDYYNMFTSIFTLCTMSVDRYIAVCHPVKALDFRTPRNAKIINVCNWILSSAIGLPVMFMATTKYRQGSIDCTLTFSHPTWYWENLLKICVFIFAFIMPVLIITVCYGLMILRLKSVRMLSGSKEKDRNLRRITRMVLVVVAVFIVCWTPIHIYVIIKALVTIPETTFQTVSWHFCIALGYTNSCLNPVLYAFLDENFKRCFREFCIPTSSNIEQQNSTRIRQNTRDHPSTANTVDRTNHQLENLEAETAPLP
Set-up: species or system Cell membrane

Row | Compound | Ki [µM]
11 | COC(=O)C(Cc1ccccc1I)NC(=O)CNCc1ccccc1 (stereo not drawn) (H-[Nphe]-[ξPhe(2-I)]-OMe) | > 10
12 | COc1cccc(CC2NC(=O)CNC2=O)c1I (stereo not drawn) | > 10
13 | COC(=O)C(Cc1cccc(OC)c1I)NC(=O)CNC(C)c1ccccc1 (stereo not drawn) | > 10
14 | COC(=O)C(Cc1cc(OC)cc(OC)c1I)NC(=O)CNCc1ccccc1 (stereo not drawn) | > 10
15 | COc1cccc(CC2NC(=O)CN(CCCc3ccccc3)C2=O)c1I (stereo not drawn) | > 10
16 | COC(=O)C(Cc1cccc(OC)c1I)NC(=O)CN (stereo not drawn) | > 10
17 | COC(=O)C(Cc1cccc(OC)c1I)NC(=O)CNCCc1ccccc1 (stereo not drawn) | > 10
18 | COC(=O)C(Cc1cccc(OC)c1)NC(=O)CNCc1ccccc1 (stereo not drawn) (H-[Nphe]-[ξPhe(3-OMe)]-OMe) | > 10
19 | COc1cccc(CC2NC(=O)[C@@H]3CCCN3C2=O)c1I (stereo partly drawn) | > 10
20 | COC(=O)C(Cc1cccc(OC)c1I)NC(=O)[C@@H](N)Cc1ccccc1 (mixture of isomers) | > 10

These compounds were tested against Delta-type opioid receptor (Homo sapiens, UniProt P41143) (assay: Displacement of [3H]DADLE from human DOR expressed in CHO cell membranes assessed as inhibition constant incubated for 60 mins by microbeta 2 scintillation counting method).
Sequence of Delta-type opioid receptor (P41143 whole entry): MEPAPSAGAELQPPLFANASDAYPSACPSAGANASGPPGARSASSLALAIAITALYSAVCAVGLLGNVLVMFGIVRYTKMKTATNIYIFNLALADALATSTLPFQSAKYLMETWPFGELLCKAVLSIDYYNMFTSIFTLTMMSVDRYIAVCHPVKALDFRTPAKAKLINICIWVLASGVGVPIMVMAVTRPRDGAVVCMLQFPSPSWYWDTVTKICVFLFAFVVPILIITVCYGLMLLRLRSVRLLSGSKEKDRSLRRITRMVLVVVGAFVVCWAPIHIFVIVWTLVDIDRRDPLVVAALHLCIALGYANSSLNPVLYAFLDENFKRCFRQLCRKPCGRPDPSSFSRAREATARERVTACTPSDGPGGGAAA
Set-up: species or system Cell membrane

Row | Compound | Ki [µM]
21 | COC(=O)C(Cc1ccccc1I)NC(=O)CNCc1ccccc1 (stereo not drawn) (H-[Nphe]-[ξPhe(2-I)]-OMe) | > 10
22 | COc1cccc(CC2NC(=O)CNC2=O)c1I (stereo not drawn) | > 10
23 | COC(=O)C(Cc1cccc(OC)c1I)NC(=O)CNC(C)c1ccccc1 (stereo not drawn) | > 10
24 | COC(=O)C(Cc1cc(OC)cc(OC)c1I)NC(=O)CNCc1ccccc1 (stereo not drawn) | > 10
25 | COc1cccc(CC2NC(=O)CN(CCCc3ccccc3)C2=O)c1I (stereo not drawn) | > 10
26 | COC(=O)C(Cc1cccc(OC)c1I)NC(=O)CN (stereo not drawn) | > 10
27 | COC(=O)C(Cc1cccc(OC)c1I)NC(=O)CNCCc1ccccc1 (stereo not drawn) | > 10
28 | COC(=O)C(Cc1cccc(OC)c1)NC(=O)CNCc1ccccc1 (stereo not drawn) (H-[Nphe]-[ξPhe(3-OMe)]-OMe) | > 10
29 | COc1cccc(CC2NC(=O)[C@@H]3CCCN3C2=O)c1I (stereo partly drawn) | > 10
30 | COC(=O)C(Cc1cccc(OC)c1I)NC(=O)[C@@H](N)Cc1ccccc1 (mixture of isomers) | > 10

Organism: Homo sapiens
Experiment: Selectivity ratio of Ki for displacement of [3H]DAMGO from human MOR expressed in CHO cell membranes to Ki for displacement of [3H]U69593 from human KOR expressed in HEK cell membranes

Row | Compound | Ratio Ki
31 | COC(=O)C(Cc1cccc(OC)c1I)NC(=O)CNC(C)c1ccccc1 (stereo not drawn) | > 13
32 | COc1cccc(CC2NC(=O)CN(CCCc3ccccc3)C2=O)c1I (stereo not drawn) | > 1.4
33 | COC(=O)C(Cc1cccc(OC)c1I)NC(=O)CNCCc1ccccc1 (stereo not drawn) | > 12
34 | COC(=O)C(Cc1cccc(OC)c1I)NC(=O)[C@@H](N)Cc1ccccc1 (mixture of isomers) | > 5

Organism: Homo sapiens
Experiment: Selectivity ratio of Ki for displacement of [3H]DADLE from human DOR expressed in CHO cell membranes to Ki for displacement of [3H]U69593 from human KOR expressed in HEK cell membranes

Row | Compound | Ratio Ki
35 | COC(=O)C(Cc1cccc(OC)c1I)NC(=O)CNC(C)c1ccccc1 (stereo not drawn) | > 13
36 | COc1cccc(CC2NC(=O)CN(CCCc3ccccc3)C2=O)c1I (stereo not drawn) | > 1.4
37 | COC(=O)C(Cc1cccc(OC)c1I)NC(=O)CNCCc1ccccc1 (stereo not drawn) | > 12
38 | COC(=O)C(Cc1cccc(OC)c1I)NC(=O)[C@@H](N)Cc1ccccc1 (mixture of isomers) | > 5
